Experimental data published in ChEMBL document CHEMBL4270632, “CD73 inhibition by purine cytotoxic nucleoside analogue-based diphosphonates” (Eur J Med Chem, 2018).
Calls of active or inactive are those of the source. The rule behind the calls is not given here.

Assays:
5'-nucleotidase [1] = target: T1, 5'-nucleotidase (Homo sapiens, UniProt P21589); assay: Inhibition of CD73 in human NCI-H292 cells assessed as reduction in conversion of AMP to adenosine incubated for 30 mins by malachite green reagent based assay; type: cell-based
5'-nucleotidase [2] = target: T1, 5'-nucleotidase; assay: Inhibition of CD73 in human MDA-MB-231 cells assessed as reduction in conversion of AMP to adenosine incubated for 30 mins by malachite green reagent based assay; type: cell-based
5'-nucleotidase [3] = target: T1, 5'-nucleotidase; assay: Inhibition of recombinant CD73 (27 to 549 residues) (unknown origin) expressed in baculovirus infected Sf9 insect cells assessed as reduction in conversion of AMP to adenosine incubated for 1 min followed by AMP addition measured after 3.5 mins by malachite green reagent based assay
HL-60 = assay: Cytotoxicity against human HL60 cells assessed as decrease in cell viability after 72 hrs by MTT assay; type: cell-based; conditions: HL-60, 72 h
Granta = assay: Cytotoxicity against human Granta cells assessed as decrease in cell viability after 72 hrs by MTT assay; type: cell-based
CCRF-CEM = assay: Cytotoxicity against human CCRF-CEM cells assessed as decrease in cell viability after 72 hrs by MTT assay; type: cell-based
RL = assay: Cytotoxicity against human RL cells assessed as decrease in cell viability after 72 hrs by MTT assay; type: cell-based

T1 sequence (P21589 whole entry): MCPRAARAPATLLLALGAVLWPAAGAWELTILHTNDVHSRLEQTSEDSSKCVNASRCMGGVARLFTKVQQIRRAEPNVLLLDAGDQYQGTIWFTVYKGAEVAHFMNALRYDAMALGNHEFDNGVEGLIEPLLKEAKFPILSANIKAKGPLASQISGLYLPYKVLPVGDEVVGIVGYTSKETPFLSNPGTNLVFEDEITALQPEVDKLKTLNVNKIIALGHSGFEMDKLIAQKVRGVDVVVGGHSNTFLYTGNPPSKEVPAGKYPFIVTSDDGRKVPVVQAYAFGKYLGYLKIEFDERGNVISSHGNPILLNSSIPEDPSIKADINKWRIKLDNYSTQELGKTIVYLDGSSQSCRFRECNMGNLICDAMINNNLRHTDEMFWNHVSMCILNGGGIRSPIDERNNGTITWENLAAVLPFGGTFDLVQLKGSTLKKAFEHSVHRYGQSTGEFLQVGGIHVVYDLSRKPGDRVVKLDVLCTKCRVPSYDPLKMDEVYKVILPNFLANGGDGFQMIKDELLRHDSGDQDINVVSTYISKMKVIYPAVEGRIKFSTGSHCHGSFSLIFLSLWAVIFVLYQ

Row | SMILES | IC50 (5'-nucleotidase [1]) | IC50 (5'-nucleotidase [2]) | inhibition (5'-nucleotidase [3]) | IC50 (5'-nucleotidase [3]) | IC50 (HL-60) | IC50 (Granta) | IC50 (CCRF-CEM) | IC50 (RL)
1 | Nc1ncnc2c1ncn2[C@@H]1O[C@H](COP(=O)(O)CP(=O)(O)O)[C@@H](O)[C@H]1O [PHOSPHOMETHYLPHOSPHONIC ACID ADENOSYL ESTER] | 23.6 µM | 21.4 µM | – | 3.8 µM | – | – | – | –
2 | Nc1nc(Cl)nc2c1ncn2[C@@H]1O[C@H](CO)[C@@H](O)[C@@H]1F [CLOFARABINE] | – | – | – | – | 0.04 µM | 0.017 µM | 0.044 µM | 0.38 µM

Now from value to compound, other results behind:

Row | IC50 (5'-nucleotidase [1]) | IC50 (5'-nucleotidase [2]) | inhibition (5'-nucleotidase [3]) | SMILES | IC50 (5'-nucleotidase [3]) | IC50 (HL-60) | IC50 (Granta) | IC50 (CCRF-CEM) | IC50 (RL)
3 | 2.2 µM | 112 µM | Active | Nc1nc(F)nc2c1ncn2[C@@H]1O[C@H](COP(=O)(O)CP(=O)(O)O)[C@@H](O)[C@@H]1O | – | – | – | – | –
4 | 0.24 µM | 3.2 µM | – | Nc1nc(Cl)nc2c1ncn2[C@@H]1O[C@H](COP(=O)(O)CP(=O)(O)O)[C@@H](O)[C@@H]1F | 0.18 µM | 49.4 µM | 39.5 µM | 50.6 µM | > 300 µM
5 | 2 µM | 147 µM | Active | Nc1nc(Cl)nc2c1ncn2[C@H]1C[C@H](O)[C@@H](COP(=O)(O)CP(=O)(O)O)O1 | – | – | – | – | –
